From patent US9169254B2, “Spiroimidazolone derivative” (Chugai Seiyaku Kabushiki Kaisha, priority 2009, dated 2015)
Structures can show the parent of a compound that is named as a salt.

Biological target: T1, human PTH1 receptor (Homo sapiens, UniProt Q03431)
T1 sequence (Q03431 27-593): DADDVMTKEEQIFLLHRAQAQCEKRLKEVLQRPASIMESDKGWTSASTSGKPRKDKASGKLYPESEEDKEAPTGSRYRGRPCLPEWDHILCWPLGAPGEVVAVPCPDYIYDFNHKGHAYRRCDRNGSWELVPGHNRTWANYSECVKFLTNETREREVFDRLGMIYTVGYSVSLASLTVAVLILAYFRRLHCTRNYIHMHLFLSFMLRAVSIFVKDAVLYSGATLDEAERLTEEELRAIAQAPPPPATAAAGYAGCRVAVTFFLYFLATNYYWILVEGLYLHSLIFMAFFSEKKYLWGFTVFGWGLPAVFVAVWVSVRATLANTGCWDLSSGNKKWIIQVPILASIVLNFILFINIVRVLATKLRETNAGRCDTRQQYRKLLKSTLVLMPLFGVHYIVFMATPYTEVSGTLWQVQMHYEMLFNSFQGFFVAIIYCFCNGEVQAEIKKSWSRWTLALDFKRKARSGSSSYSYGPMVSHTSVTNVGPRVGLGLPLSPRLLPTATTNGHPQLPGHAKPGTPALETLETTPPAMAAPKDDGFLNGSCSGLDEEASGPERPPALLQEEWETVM
Test: In vitro cAMP signal activity in HKRK-B7 cells (LLC-PK1 cells overexpressing the human PTH1 receptor)
Format: cell-based
Conditions: HKRK-B7 cells; compound at 1×10^−3 M; […]; 0.1 µM

`Cc1cc(N(C)C(=O)OCCN(C)C)ccc1/C=C/S(=O)(=O)N1CCC2(CC1)N=C(c1cccc(OC(F)(F)F)c1)NC2=O` [Compound 466, Methyl-(3-methyl-4-{(E)-2-[4-oxo-2-(3-trifluoromethoxy-phenyl)-1,3,8-triaza-spiro[4.5]dec-1-ene-8-sulfonyl]-vinyl}-phenyl)-carbamic acid 2-dimethylamino-ethyl ester] was tested, and the “cAMP production activity (%)” value was 23%.

Same assay, conditions: HKRK-B7 cells; compound at 1×10^−3 M; cAMP produced as percentage of that produced by hPTH(1-34) at 100 nM

Going from `[2H]C([2H])([2H])C([2H])([2H])C([2H])([2H])C([2H])([2H])Oc1ccc(C2=NC3(CCN(S(=O)(=O)/C=C/c4c(C)cc(C(=O)N5CCC(C)(O)CC5)cc4C)CC3)C(=O)N2)cc1C(F)(F)F` [Compound 1220, 2-(4-[1,1,2,2,3,3,4,4,4-^2H9]butoxy-3-trifluoromethyl-phenyl)-8-{(E)-2-[4-(4-hydroxy-4-methyl-piperidine-1-carbonyl)-2,6-dimethyl-phenyl]-ethenesulfonyl}-1,3,8-triaza-spiro[4.5]dec-1-en-4-one] to `Cc1cc(C(=O)N2CCC(O)(CF)CC2)cc(C)c1/C=C/S(=O)(=O)N1CCC2(CC1)N=C(c1ccc(OCC(F)(F)F)c(F)c1)NC2=O` [Compound 1260, 8-{(E)-2-[4-(4-fluoromethyl-4-hydroxy-piperidine-1-carbonyl)-2,6-dimethyl-phenyl]-ethenesulfonyl}-2-[3-fluoro-4-(2,2,2-trifluoro-ethoxy)-phenyl]-1,3,8-triaza-spiro[4.5]dec-1-en-4-one], the “cAMP production activity (%)” value rises from 80% to 81%.

First: Cc1cc(C(=O)N2CCN(C3CCN(C)CC3)CC2)ccc1CCS(=O)(=O)N1CCC2(CC1)N=C(c1cccc(C(F)(F)F)c1)NC2=O [Compound 958]
Second: Cc1cc(C(=O)N2CCC(N)C2)ccc1CCS(=O)(=O)N1CCC2(CC1)N=C(c1cccc(C(F)(F)F)c1)NC2=O (stereo not shown) [Compound 445, 8-{2-[4-(3-amino-pyrrolidine-1-carbonyl)-2-methyl-phenyl]-ethanesulfonyl}-2-(3-trifluoromethyl-phenyl)-1,3,8-triaza-spiro[4.5]dec-1-en-4-one hydrochloride]
The “cAMP production activity (%)” value of the first is lower: 49% for the first, 83% for the second.

First: CC(=O)Nc1ccc(CCS(=O)(=O)N2CCC3(CC2)N=C([C@H]2CC[C@H](CCC(F)F)CC2)NC3=O)c(C)c1 [Compound 955, N-[4-(2-{2-[4-(3,3-Difluoro-propyl)-cyclohexyl]-4-oxo-1,3,8-triaza-spiro[4.5]dec-1-ene-8-sulfonyl}-ethyl)-3-methyl-phenyl]-acetamide]
Second: CC(=O)Nc1ccc(CCS(=O)(=O)N2CCC3(CC2)N=C(C2CCC(=CCCF)CC2)NC3=O)c(C)c1 (stereo not shown) [Compound 1066, N-[4-(2-{2-[4-(3-Fluoro-propylidene)-cyclohexyl]-4-oxo-1,3,8-triaza-spiro[4.5]dec-1-ene-8-sulfonyl}-ethyl)-3-methyl-phenyl]-acetamide]
The “cAMP production activity (%)” value of the first is lower: 79% for the first, 83% for the second.

Compared with `Cc1cc2c(/C=C/S(=O)(=O)N3CCC4(CC3)N=C(C3CCCCC3)NC4=O)cccc2[nH]1` [Compound 637, 2-Cyclohexyl-8-[(E)-2-(2-methyl-1H-indol-4-yl)-ethenesulfonyl]-1,3,8-triaza-spiro[4.5]dec-1-en-4-one], `Cc1ccccc1C#CS(=O)(=O)N1CCC2(CC1)N=C(C1CCCCC1)NC2=O` [Compound 1376, 2-Cyclohexyl-8-(2-o-tolyl-ethynesulfonyl)-1,3,8-triaza-spiro[4.5]dec-1-en-4-one] is higher in “cAMP production activity (%)” value: 38% for the first, 42% for the second.

First: CC(C)(C)CC(=O)N1CCCC(C2=NC3(CCN(S(=O)(=O)c4cccc(Cl)c4)CC3)C(=O)N2)C1 (stereo not shown) [Compound 423, 8-(3-Chloro-benzenesulfonyl)-2-[1-(3,3-dimethyl-butyryl)-piperidin-3-yl]-1,3,8-triaza-spiro[4.5]dec-1-en-4-one]
Second: O=C1NC(C2CCCCC2)=NC12CCN(S(=O)(=O)CCc1ccc3[nH]ccc3c1)CC2 [Compound 269, 2-cyclohexyl-8-[2-(1H-indol-5-yl)-ethanesulfonyl]-1,3,8-triaza-spiro[4.5]dec-1-en-4-one]
The “cAMP production activity (%)” value of the first is lower: 42% for the first, 43% for the second.

Going from `Cc1cc(C(=O)N2CCC(C)(O)CC2)cc(C)c1/C=C/S(=O)(=O)N1CCC2(CC1)N=C(c1ccc(C(F)F)c(F)c1)NC2=O` [Compound 1219, 2-(4-difluoromethyl-3-fluoro-phenyl)-8-{(E)-2-[4-(4-hydroxy-4-methyl-piperidine-1-carbonyl)-2,6-dimethyl-phenyl]-ethenesulfonyl}-1,3,8-triaza-spiro[4.5]dec-1-en-4-one] to `Cc1cc(N(C)C(N)=O)ccc1/C=C/S(=O)(=O)N1CCC2(CC1)N=C(c1cccc(OC(F)(F)F)c1)NC2=O` [Compound 458, 1-methyl-1-(3-methyl-4-{(E)-2-[4-oxo-2-(3-trifluoromethoxy-phenyl)-1,3,8-triaza-spiro[4.5]dec-1-ene-8-sulfonyl]-vinyl}-phenyl)-urea], the “cAMP production activity (%)” value rises from 67% to 77%.

Going from `Cc1cc2ccc1CCS(=O)(=O)N1CCC3(CC1)N=C(NC3=O)c1cc(cc(C(F)(F)F)c1)OCCC/C=C/COCCN(C)C2=O` [Compound 1436] to `CC(=O)N(CCO)c1cc(C)c(CCS(=O)(=O)N2CCC3(CC2)N=C(c2cccc(OC(F)(F)F)c2)NC3=O)cc1F` [Compound 873, N-(2-fluoro-5-methyl-4-{2-[4-oxo-2-(3-trifluoromethoxy-phenyl)-1,3,8-triaza-spiro[4.5]dec-1-ene-8-sulfonyl]-ethyl}-phenyl)-N-(2-hydroxy-ethyl)-acetamide], the “cAMP production activity (%)” value rises from 54% to 77%.

First: Cc1cc(N2C(=O)CN(C)C2=O)ccc1CCS(=O)(=O)N1CCC2(CC1)N=C(C1CCC(C)CC1)NC2=O (stereo not shown) [Compound 862, 1-methyl-3-(3-methyl-4-{2-[2-(4-methyl-cyclohexyl)-4-oxo-1,3,8-triaza-spiro[4.5]dec-1-ene-8-sulfonyl]-ethyl}-phenyl)-imidazolidine-2,4-dione]
Second: CCCc1cccc(-c2cccc(C3=NC4(CCN(S(=O)(=O)CCc5c(C)cc(N(C)C(N)=O)cc5C)CC4)C(=O)N3)c2)c1 [Compound 1136, 1-(3,5-Dimethyl-4-{2-[4-oxo-2-(3′-propyl-biphenyl-3-yl)-1,3,8-triaza-spiro[4.5]dec-1-ene-8-sulfonyl]-ethyl}-phenyl)-1-methyl-urea]
The “cAMP production activity (%)” value of the first is lower: 55% for the first, 112% for the second.

First: Cc1cc(N(C)C(N)=O)cc(C)c1/C=C/S(=O)(=O)N1CCC2(CC1)N=C(CCCCCCCCCCCNC(=O)OC(C)(C)C)NC2=O [Compound 1308, [11-(8-{(E)-2-[2,6-dimethyl-4-(1-methyl-ureido)-phenyl]-ethenesulfonyl}-4-oxo-1,3,8-triaza-spiro[4.5]dec-1-en-2-yl)-undecyl]-carbamic acid tert-butyl ester]
Second: O=C1NC(c2cccc(OC(F)(F)F)c2)=NC12CCN(S(=O)(=O)/C=C/c1cc(Cl)c(OCCC(O)CO)cc1Cl)CC2 (stereo not shown) [Compound 234, 8-{(E)-2-[2,5-dichloro-4-(3,4-dihydroxy-butoxy)-phenyl]-ethenesulfonyl}-2-(3-trifluoromethoxy-phenyl)-1,3,8-triaza-spiro[4.5]dec-1-en-4-one]
The “cAMP production activity (%)” value of the first is higher: 102% for the first, 78% for the second.
